Reference: the supplement of paper PMC10307832

Legend:
Experiment in all cases: relative viability (nuclei count vs DMSO), 5 days (fraction); higher = more cells survive
[1] = compound: CN1CCN(CC1)C2=CC(=C(C=C2)NC3=NC(=C(S3)C(=O)C4=C(C=CC=C4Cl)Cl)N)OC [XMD14-99] + CC1(C)CCC(c2ccc(Cl)cc2)=C(CN2CCN(c3ccc(C(=O)NS(=O)(=O)c4ccc(N[C@H](CCN5CCOCC5)CSc5ccccc5)c(S(=O)(=O)C(F)(F)F)c4)cc3)CC2)C1 [Navitoclax] (partner 0.5 µM)
Summary of the method: (§1)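 Dosing by pin tool came one day after lung cancer cell lines were seeded in 1536-well plates, using either one drug or a fixed anchor-drug dose plus five library-drug doses (not always all listed) in √10 steps. After 5 days, nuclei were counted on 4× images. Relative viability is treated-well nuclei count divided by vehicle-well nuclei count, and values are medians of duplicate plates.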

[2] = compound: CN1CCN(CC1)C2=CC(=C(C=C2)NC3=NC(=C(S3)C(=O)C4=C(C=CC=C4Cl)Cl)N)OC [XMD14-99] + N=C(N)NC(=N)NCCc1ccccc1 [Phenformin] (partner 250 µM)
Summary of the method: as §1

[3] = compound: N[C@@H]1CCCN(c2c(/C=C3\SC(=O)NC3=O)cccc2-c2ccccc2)C1 [AZD1208] + Cc1nc(NC(=O)N2CCC[C@H]2C(N)=O)sc1-c1ccnc(C(C)(C)C(F)(F)F)c1 [Alpelisib] (partner 2 µM)
Summary of the method: as §1

[4] = compound: N[C@@H]1CCCN(c2c(/C=C3\SC(=O)NC3=O)cccc2-c2ccccc2)C1 [AZD1208] + Nc1nc2[nH]cc(CCc3ccc(C(=O)N[C@@H](CCC(=O)O)C(=O)O)cc3)c2c(=O)[nH]1 [Pemetrexed] (partner 0.2 µM)
Summary of the method: as §1

With UMC-11 the relative viability ([1]; first compound 0.08 µM) was 0.308, the relative viability ([1]; first compound 0.8 µM) was 0.33 and the relative viability ([1]; first compound 2.53 µM) was 0.343. The relative viability ([1]; first compound 8 µM) was 0.317, the relative viability ([2]; first compound 0.08 µM) was 0.336 and the relative viability ([2]; first compound 0.8 µM) was 0.314. The relative viability ([2]; first compound 2.53 µM) was 0.319, the relative viability ([2]; first compound 8 µM) was 0.275 and the relative viability ([3]; first compound 0.08 µM) was 0.757. For the same cell line, the relative viability ([3]; first compound 0.253 µM) was 0.908, the relative viability ([3]; first compound 0.8 µM) was 0.746 and the relative viability ([3]; first compound 2.53 µM) was 0.77. It also gave a relative viability ([3]; first compound 8 µM) of 0.488, a relative viability ([4]; first compound 0.08 µM) of 0.689 and a relative viability ([4]; first compound 0.253 µM) of 0.718. For the same cell line, the relative viability ([4]; first compound 0.8 µM) was 0.631, the relative viability ([4]; first compound 2.53 µM) was 0.594 and the relative viability ([4]; first compound 8 µM) was 0.48.
